Results published in US8217055B2, “Pyrido-pyrazine derivatives useful as herbicidal compounds” (Syngenta Crop Protection LLC, priority 2006, dated 2012).

Tests used:
Assay in all cases: Example B2 herbicidal action, post-emergence, pots in glasshouse, evaluated after 13 days (10=total damage to plant; 0=no damage to plant)
Assay type in all cases: in vivo
[1] = test system: Setaria faberi
Protocol: (§1) Seeds of a variety of test species were sown in standard soil in pots. After 8 days cultivation (post-emergence) under controlled conditions in a glasshouse (at 24/16° C., day/night; 14 hours light; 65% humidity), the plants were sprayed with an aqueous spray solution derived from the formulation of the technical active ingredient in acetone/water (50:50) solution containing 0.5% Tween 20 (polyoxyethelyene sorbitan monolaurate, CAS RN 9005-64-5). The test plants were then grown in a glasshouse under controlled conditions in a glasshouse (at 24/16° C., day/night; 14 hours light; 65% humidity) and watered twice daily. After 13 days, the test was evaluated (10=total damage to plant; 0=no damage to plant).

[2] = test system: Solanum nigrum
Protocol: as §1

[3] = test system: Ipomea hederaceae
Protocol: as §1

[4] = test system: Echinochloa crus-galli
Protocol: as §1

[5] = test system: Amaranthus retroflexus
Protocol: as §1

CC(C)C(=O)Oc1c(-c2ccccc2OC(F)F)c(=O)n(CC(F)F)c2nccnc12 [A26]
SETFA damage score (10=total damage to plant; 0=no damage to plant) ([1]; rate 1000 g/ha): 2 | SOLNI damage score (10=total damage to plant; 0=no damage to plant) ([2]; rate 1000 g/ha): 5 | IPOHE damage score (10=total damage to plant; 0=no damage to plant) ([3]; rate 1000 g/ha): 5 | ECHCG damage score (10=total damage to plant; 0=no damage to plant) ([4]; rate 1000 g/ha): 2 | AMARE damage score (10=total damage to plant; 0=no damage to plant) ([5]; rate 1000 g/ha): 10

COc1ccc(OC(F)(F)F)cc1-c1c(OC(=O)C(C)(C)C)c2nccnc2n(CC(F)F)c1=O [A27]
SETFA damage score (10=total damage to plant; 0=no damage to plant) ([1]; rate 1000 g/ha): 7 | SOLNI damage score (10=total damage to plant; 0=no damage to plant) ([2]; rate 1000 g/ha): 9 | IPOHE damage score (10=total damage to plant; 0=no damage to plant) ([3]; rate 1000 g/ha): 7 | ECHCG damage score (10=total damage to plant; 0=no damage to plant) ([4]; rate 1000 g/ha): 7 | AMARE damage score (10=total damage to plant; 0=no damage to plant) ([5]; rate 1000 g/ha): 9

CC(C)(C)C(=O)Oc1c(-c2ccccc2OC(F)F)c(=O)n(CC(F)F)c2nccnc12 [A28]
SETFA damage score (10=total damage to plant; 0=no damage to plant) ([1]; rate 1000 g/ha): 3 | SOLNI damage score (10=total damage to plant; 0=no damage to plant) ([2]; rate 1000 g/ha): 10 | IPOHE damage score (10=total damage to plant; 0=no damage to plant) ([3]; rate 1000 g/ha): 8 | ECHCG damage score (10=total damage to plant; 0=no damage to plant) ([4]; rate 1000 g/ha): 1 | AMARE damage score (10=total damage to plant; 0=no damage to plant) ([5]; rate 1000 g/ha): 9

CC(C)(C)C(=O)Oc1c(-c2c(F)ccc(Cl)c2Cl)c(=O)n(CC(F)F)c2nccnc12 [A32]
SETFA damage score (10=total damage to plant; 0=no damage to plant) ([1]; rate 1000 g/ha): 7 | SOLNI damage score (10=total damage to plant; 0=no damage to plant) ([2]; rate 1000 g/ha): 10 | IPOHE damage score (10=total damage to plant; 0=no damage to plant) ([3]; rate 1000 g/ha): 9 | ECHCG damage score (10=total damage to plant; 0=no damage to plant) ([4]; rate 1000 g/ha): 4 | AMARE damage score (10=total damage to plant; 0=no damage to plant) ([5]; rate 1000 g/ha): 10

CC(C)(C)C(=O)Oc1c(-c2cc(F)c(F)cc2Cl)c(=O)n(CC(F)F)c2nccnc12 [A33]
SETFA damage score (10=total damage to plant; 0=no damage to plant) ([1]; rate 1000 g/ha): 7 | SOLNI damage score (10=total damage to plant; 0=no damage to plant) ([2]; rate 1000 g/ha): 10 | IPOHE damage score (10=total damage to plant; 0=no damage to plant) ([3]; rate 1000 g/ha): 7 | ECHCG damage score (10=total damage to plant; 0=no damage to plant) ([4]; rate 1000 g/ha): 4 | AMARE damage score (10=total damage to plant; 0=no damage to plant) ([5]; rate 1000 g/ha): 10

CC(C)(C)C(=O)Oc1c(-c2c(F)cccc2Cl)c(=O)n(CC(F)F)c2nccnc12 [A34]
SETFA damage score (10=total damage to plant; 0=no damage to plant) ([1]; rate 1000 g/ha): 6 | SOLNI damage score (10=total damage to plant; 0=no damage to plant) ([2]; rate 1000 g/ha): 10 | IPOHE damage score (10=total damage to plant; 0=no damage to plant) ([3]; rate 1000 g/ha): 9 | ECHCG damage score (10=total damage to plant; 0=no damage to plant) ([4]; rate 1000 g/ha): 4 | AMARE damage score (10=total damage to plant; 0=no damage to plant) ([5]; rate 1000 g/ha): 10

CC(C)(C)C(=O)Oc1c(-c2cc(Cl)ccc2C(F)(F)F)c(=O)n(CC(F)F)c2nccnc12 [A37]
SETFA damage score (10=total damage to plant; 0=no damage to plant) ([1]; rate 1000 g/ha): 7 | SOLNI damage score (10=total damage to plant; 0=no damage to plant) ([2]; rate 1000 g/ha): 5 | IPOHE damage score (10=total damage to plant; 0=no damage to plant) ([3]; rate 1000 g/ha): 7 | ECHCG damage score (10=total damage to plant; 0=no damage to plant) ([4]; rate 1000 g/ha): 5 | AMARE damage score (10=total damage to plant; 0=no damage to plant) ([5]; rate 1000 g/ha): 6

COc1ccc(Br)cc1-c1c(OC(=O)C(C)(C)C)c2nccnc2n(CC(F)F)c1=O [A38]
SETFA damage score (10=total damage to plant; 0=no damage to plant) ([1]; rate 1000 g/ha): 8 | SOLNI damage score (10=total damage to plant; 0=no damage to plant) ([2]; rate 1000 g/ha): 9 | IPOHE damage score (10=total damage to plant; 0=no damage to plant) ([3]; rate 1000 g/ha): 6 | ECHCG damage score (10=total damage to plant; 0=no damage to plant) ([4]; rate 1000 g/ha): 6 | AMARE damage score (10=total damage to plant; 0=no damage to plant) ([5]; rate 1000 g/ha): 10

CC(C)C(=O)Oc1c(-c2c(Cl)cccc2C(F)(F)F)c(=O)n(CC(F)F)c2nccnc12 [A41]
SETFA damage score (10=total damage to plant; 0=no damage to plant) ([1]; rate 1000 g/ha): 9 | SOLNI damage score (10=total damage to plant; 0=no damage to plant) ([2]; rate 1000 g/ha): 10 | IPOHE damage score (10=total damage to plant; 0=no damage to plant) ([3]; rate 1000 g/ha): 9 | ECHCG damage score (10=total damage to plant; 0=no damage to plant) ([4]; rate 1000 g/ha): 8 | AMARE damage score (10=total damage to plant; 0=no damage to plant) ([5]; rate 1000 g/ha): 10

CC(C)(C)C(=O)Oc1c(-c2cc(Cl)ccc2Cl)c(=O)n(CC(F)F)c2nccnc12 [A42]
SETFA damage score (10=total damage to plant; 0=no damage to plant) ([1]; rate 1000 g/ha): 7 | SOLNI damage score (10=total damage to plant; 0=no damage to plant) ([2]; rate 1000 g/ha): 10 | IPOHE damage score (10=total damage to plant; 0=no damage to plant) ([3]; rate 1000 g/ha): 9 | ECHCG damage score (10=total damage to plant; 0=no damage to plant) ([4]; rate 1000 g/ha): 6 | AMARE damage score (10=total damage to plant; 0=no damage to plant) ([5]; rate 1000 g/ha): 10

CC(C)(C)C(=O)Oc1c(-c2cc(C(F)(F)F)ccc2C(F)(F)F)c(=O)n(CC(F)F)c2nccnc12 [A43]
SETFA damage score (10=total damage to plant; 0=no damage to plant) ([1]; rate 1000 g/ha): 9 | SOLNI damage score (10=total damage to plant; 0=no damage to plant) ([2]; rate 1000 g/ha): 9 | IPOHE damage score (10=total damage to plant; 0=no damage to plant) ([3]; rate 1000 g/ha): 9 | ECHCG damage score (10=total damage to plant; 0=no damage to plant) ([4]; rate 1000 g/ha): 8 | AMARE damage score (10=total damage to plant; 0=no damage to plant) ([5]; rate 1000 g/ha): 10

COc1cc(F)c(F)cc1-c1c(OC(=O)C(C)(C)C)c2nccnc2n(CC(F)F)c1=O [A44]
SETFA damage score (10=total damage to plant; 0=no damage to plant) ([1]; rate 1000 g/ha): 9 | SOLNI damage score (10=total damage to plant; 0=no damage to plant) ([2]; rate 1000 g/ha): 10 | IPOHE damage score (10=total damage to plant; 0=no damage to plant) ([3]; rate 1000 g/ha): 6 | ECHCG damage score (10=total damage to plant; 0=no damage to plant) ([4]; rate 1000 g/ha): 7 | AMARE damage score (10=total damage to plant; 0=no damage to plant) ([5]; rate 1000 g/ha): 9

CCc1ccccc1-c1c(OC(=O)C(C)C)c2nccnc2n(CC(F)F)c1=O [A45]
SETFA damage score (10=total damage to plant; 0=no damage to plant) ([1]; rate 1000 g/ha): 8 | SOLNI damage score (10=total damage to plant; 0=no damage to plant) ([2]; rate 1000 g/ha): 10 | IPOHE damage score (10=total damage to plant; 0=no damage to plant) ([3]; rate 1000 g/ha): 9 | ECHCG damage score (10=total damage to plant; 0=no damage to plant) ([4]; rate 1000 g/ha): 5 | AMARE damage score (10=total damage to plant; 0=no damage to plant) ([5]; rate 1000 g/ha): 10

O=c1c(-c2cc(C(F)(F)F)ccc2Cl)c(O)c2nccnc2n1CC(F)F [B3]
SETFA damage score (10=total damage to plant; 0=no damage to plant) ([1]; rate 250 g/ha): 7 | SOLNI damage score (10=total damage to plant; 0=no damage to plant) ([2]; rate 250 g/ha): 9 | IPOHE damage score (10=total damage to plant; 0=no damage to plant) ([3]; rate 250 g/ha): 8 | ECHCG damage score (10=total damage to plant; 0=no damage to plant) ([4]; rate 250 g/ha): 7 | AMARE damage score (10=total damage to plant; 0=no damage to plant) ([5]; rate 250 g/ha): 10
